# Source: patent US20100137403A1, “METHOD FOR ENHANCING COGNITION OR INHIBITING COGNITIVE DECLINE” (priority 2008, published 2010)
# “Also recorded” adds a separate entry of the source. Where two headings read alike, the source gives them in different places.
# Legend:
# C57BL/6 mice [1] = conditions: general statement on the SAT test; cited from earlier work
# NF-κB [2] = test: In vivo bio-photonic imaging of NF-κB luciferase reporter transgenic mice; parameters: species or system mouse; conditions: for NF-κB activation in brain (dorsal brain images): Example 3
# NF-κB [3] = test: as above; parameters: species or system mouse; conditions: for NF-κB activation in the brain: Example 4
# Experimental: The animal used to establish this criterion is preferably a laboratory animal, more preferably a rodent, illustratively a mouse. […] In this technique, a test compound, in this case a Ca^2+ channel blocker, is administered by intravenous (i.v.) injection to transgenic mice having a firefly luciferase reporter driven by one or more NF-κB response elements fused to the reporter (NF-κB::LUC mice). NF-κB expression, nuclear translocation and binding to the response elements in any anatomical or sub-anatomical region of a mouse results in activation of the luciferase reporter in that region. Activated luciferase, in presence of a luciferin substrate, emits light which can be detected and quantitated, and can be used in whole-body imaging to identify specific anatomical or sub-anatomical regions where the luciferase is activated as a result of NF-κB expression. Mice can be anesthetized and imaged at time intervals after administration of the test compound to reveal temporal as well as spatial distribution of NF-κB expression.
# In vivo bio-photonic imaging was used to investigate temporal and spatial modulation of physiological processes following acute tiapamil administration to mice. For these studies we employed an NF-κB luciferase transgenic line that was constructed using three NF-κB response elements fused to a firefly luciferase reporter gene. The effect of tiapamil on NF-κB activation was monitored as modulation of detectable luciferase reporter activity, a surrogate for NF-κB activation and nuclear translocation with subsequent binding to the response elements of the reporter. Luciferase activity was detected by its ability to cleave luciferin, a luciferase substrate. Light emitted was detected and analyzed using a highly sensitive CCD imaging system.
# For the present study, female NF-κB transgenic mice (5 per treatment) received tiapamil i.v. at 1 or 10 mg/kg in a saline vehicle, or vehicle control. At 2, 4 and 6 hours after administration, the animals were anesthetized and imaged. Visual and quantitative analysis was then performed based on counting photons of light emitted from specific anatomical regions. […] The data are depicted quantitatively in FIG. 1.
# NF-κB [4] = test: Luciferase imaging of 1 mm coronal brain sections from NF-κB transgenic mice; assay type: in vivo, mouse; conditions: 1 and 10 mg/kg, 6-hour time point
# From the text: Evaluation of tiapamil in the NF-κB transgenic mouse line was repeated essentially as described in Example 1 and whole-body images were collected at the 6-hour time point. Brains were rapidly removed, chilled in ice-cold saline and sliced into 1 mm coronal sections. The sections were then placed onto glass slides, covered with luciferin solution (Luciferase Assay System substrate, Promega) and subsequently imaged in an IVIS 200 imaging system (Caliper Corp.) to evaluate effect of tiapamil on regional distribution of luciferase activity in the brain.
# Sprague-Dawley rats = test: Novel object recognition (NOR) test of long-term memory; assay type: in vivo, rat
# From the text: The novel object recognition (NOR) paradigm is a rodent model of recognition learning memory retrieval and takes advantage of the spontaneous behavior of rodents to investigate a novel object by comparison with a familiar object (Ennaceur & Delacour (1988) Behav Brain Res. 31:47-59). NOR has been employed extensively to indicate potential cognition-enhancing properties of test compounds.
# The objective of this study was to test cognition-enhancing properties of tiapamil using the NOR test of long-term memory in healthy male rats. Adult male Sprague-Dawley rats were used in this study. Animals were placed in the experimental rooms at postnatal day 80 and assigned unique identification numbers (tail marked). Pairs were housed in polycarbonate cages with filter tops and acclimated for 7 days prior to commencing any studies. Animals were maintained in a 12 hour light/dark cycle with room temperature maintained at 22±2° C. with relative humidity maintained at approximately 50%. Food and water were provided ad libitum. All animals were examined, handled, and weighed for two days prior to initiation of the study to assure adequate health and suitability and to minimize non-specific stress associated with manipulation. Each animal was randomly assigned across treatment groups (8 animals per group) and balanced by cage numbers. […]
# Tiapamil (10 or 30 mg/kg) was dissolved in saline and administered i.p. 1 or 8 hours prior to training. […] The rats were assessed for cognitive ability in a test apparatus comprising an open-field arena placed in a sound-attenuated room under dimmed lighting. […] All tests were video-scored blind. […] This 10-minute training period, T1, was recorded for subsequent analysis if necessary. […] After 24 hours, each rat was placed again in the test arena for 10 minutes (T2) in presence of a copy of the familiar object and a novel object, and the time spent exploring both objects was recorded. […] The NOR index was measured as the ratio of time spent exploring the novel object over total time spent exploring both objects (familiar+novel), during retention session T2.
# C57BL/6 mice [5] = test: Spontaneous alternation task (SAT) test of short-term memory in T-maze; assay type: in vivo, mouse; conditions: for alternation (short-term memory) in healthy mice / alternation (short-term memory) in scopolamine-treated mice: 30 mg/kg i.p. 8 hours prior to the SAT; for alternation (short-term memory) in healthy mice: administered alone; for alternation (short-term memory) in scopolamine-treated mice: scopolamine 1 mg/kg i.p. 30 minutes prior
# [6] = in vivo; cited from earlier work
# young adult mice = conditions: cited from earlier work
# [7] = tested on: nucleus basalis magnocellularis lesioned rats; conditions: cited from earlier work
# mouse cerebellar neurons = conditions: cited from earlier work
# mice = test: Lethality of phenylalkylamine Ca2+ channel blockers in mice; assay type: in vivo; conditions: 10 mg/kg i.v.
# From the text: […]. The doses administered for these studies were selected to reflect the previously characterized potency of each of the drugs on blocking L-type Ca^2+ channel function. […].
molecule,measurement,setting,value
CN1[C@@H]2C[C@@H](OC(=O)[C@H](CO)c3ccccc3)C[C@H]1[C@@H]1O[C@@H]12 [scopolamine],spontaneous alternation,C57BL/6 mice [1],impaired
COc1cc2c(cc1OC)C(=O)C(CC1CCN(Cc3ccccc3)CC1)C2 (centres unmarked) [donepezil],spontaneous alternation,C57BL/6 mice [1],enhanced
"COc1ccc(CCN(C)CCCC2(c3ccc(OC)c(OC)c3)S(=O)(=O)CCCS2(=O)=O)cc1OC [tiapamil, N-(3,4-dimethoxyphenethyl)-2-(3,4-dimethoxyphenyl)-N-methyl-m-dithian-2-propylamin-1,1,3,3-tetroxide]",NF-κB activation in brain (dorsal brain images),"NF-κB [2]; 10 mg/kg i.v., 2, 4 and 6 hours",robust effect
same,"NF-κB signaling in the brain (light emission from head region, dorsal view)","NF-κB [2]; Example 5, i.p., 2, 4, 6 and 8 hours",enhanced
same,NF-κB activation in the brain,"NF-κB [3]; 10 mg/kg i.v., surviving animals, 2, 4, 6 hours, 10 mg/kg",robust effect; also recorded: substantially increased
same,NF-κB activation in peripheral anatomical regions,NF-κB [3]; i.v. 1 or 10 mg/kg,no effect
same,NF-κB expression in the head,"NF-κB [3]; i.v. 1 or 10 mg/kg, 4 and 6 hours after treatment",dose-dependent increase
same,luciferase expression in all regions of the brain evaluated,NF-κB [4],dramatic effect
same,NOR index 24 hours after training,"Sprague-Dawley rats; 10 mg/kg i.p., 1 hour",significantly increased NOR index
same,NOR index 24 hours after training,"Sprague-Dawley rats; 10 mg/kg i.p., 8 hours",significantly increased NOR index
same,NOR index 24 hours after training,Sprague-Dawley rats; 30 mg/kg i.p.,not effective
same,alternation (short-term memory) in healthy mice,C57BL/6 mice [5],enhances short-term memory
same,alternation (short-term memory) in healthy mice,C57BL/6 mice [5]; listed as Tiapamil,increased the number of alternation events
same,alternation (short-term memory) in scopolamine-treated mice,C57BL/6 mice [5],reverses memory deficits
same,alternation (short-term memory) in scopolamine-treated mice,C57BL/6 mice [5]; listed as Tiapamil,prevented scopolamine-induced impairment
same,efficacy on aspects of ischemic disease,[6],ineffective
COc1ccc(CCN(C)CCCC(C#N)(c2ccc(OC)c(OC)c2)C(C)C)cc1OC (centres unmarked) [verapamil],linear maze acquisition,young adult mice; at the most effective retention dose,failed to enhance acquisition
same,linear maze retention,young adult mice; young adult mice,enhancement effects at three doses
same,retention of passive avoidance learning,young adult mice; young adult mice,failed to facilitate retention
same,acquisition and performance aspects of active avoidance,[7]; 2.5 and 5 mg/kg,improved
same,acquisition and performance aspects of active avoidance,[7]; lower (1 mg/kg) and higher (10 mg/kg) doses,ineffective
same,genetically-inhibited neurite extension,mouse cerebellar neurons; mouse cerebellar neurons,could restore
same,neuroprotection,mouse cerebellar neurons; normal neurons exposed to high concentrations of ethanol,neuroprotective
same,Deaths (n = 5),mice,5
gallopamil,NF-κB activation in brain (dorsal brain images),"NF-κB [2]; 0.5 mg/kg i.v., 2- and 4-hour time points",marginal effect
same,NF-κB activation in brain (dorsal brain images),"NF-κB [2]; 0.5 mg/kg i.v., 6-hour time point",more dramatic effect
same,NF-κB activation in the brain,"NF-κB [3]; 1 mg/kg i.v., 3 surviving animals, 1 mg/kg",induced NF-κB activation; also recorded: increased NF-κB expression in the brain
same,NF-κB activation in the brain,"NF-κB [3]; 10 mg/kg i.v., surviving animals, 2, 4, 6 hours",minor to no change
same,efficacy on aspects of ischemic disease,[6],ineffective
O=C(O)c1cc(/N=N/c2ccc(S(=O)(=O)Nc3ccccn3)cc2)ccc1O [sulfasalazine],measureable NF-κB activity,"NF-κB [2]; Example 5, co-administration of tiapamil and high-dose sulfasalazine",increased amount of measureable NF-κB activity
same,measureable NF-κB activity,"NF-κB [2]; Example 5, high-dose sulfasalazine alone",increased amount of measureable NF-κB activity
same,effect on tiapamil-induced short-term memory enhancement,"C57BL/6 mice [5]; sulfasalazine 3 mg/kg i.p. co-administered with tiapamil 30 mg/kg 8 hours prior to the SAT, healthy mice",loss of tiapamil's memory-enhancing effects
